From ChEMBL document CHEMBL5108050, “Discovery of a New Class of Uracil Derivatives as Potential Mixed Lineage Kinase Domain-like Protein (MLKL) Inhibitors” (J Med Chem, 2022)

Legend:
HT-29 = assay: Anti-necroptic activity in human HT-29 cells assessed as inhibition of TSZ (TNFalpha, Smac mimetic and z-VAD-FMK) induced necroptosis incubated for 24 hrs by celltiter-glo luminescent cell viability assay; assay type: functional, cell-based; settings: HT-29, 24 h
[1] = target: Receptor-interacting serine/threonine-protein kinase 3 (Homo sapiens) (UniProt Q9Y572); assay: Inhibition of full length RIP3 (unknown origin) assessed as substrate phosphorylation using MBP and ATP as substrate at 1 uM preincubated for 15 mins followed by substrate addition and measured after 90 mins by ADP-Glo luminescence assay; values are per cent of control; settings: time 105.0 min
Sequence of Receptor-interacting serine/threonine-protein kinase 3 (Homo sapiens) (Q9Y572 whole entry, looked up, the tested form may be a part): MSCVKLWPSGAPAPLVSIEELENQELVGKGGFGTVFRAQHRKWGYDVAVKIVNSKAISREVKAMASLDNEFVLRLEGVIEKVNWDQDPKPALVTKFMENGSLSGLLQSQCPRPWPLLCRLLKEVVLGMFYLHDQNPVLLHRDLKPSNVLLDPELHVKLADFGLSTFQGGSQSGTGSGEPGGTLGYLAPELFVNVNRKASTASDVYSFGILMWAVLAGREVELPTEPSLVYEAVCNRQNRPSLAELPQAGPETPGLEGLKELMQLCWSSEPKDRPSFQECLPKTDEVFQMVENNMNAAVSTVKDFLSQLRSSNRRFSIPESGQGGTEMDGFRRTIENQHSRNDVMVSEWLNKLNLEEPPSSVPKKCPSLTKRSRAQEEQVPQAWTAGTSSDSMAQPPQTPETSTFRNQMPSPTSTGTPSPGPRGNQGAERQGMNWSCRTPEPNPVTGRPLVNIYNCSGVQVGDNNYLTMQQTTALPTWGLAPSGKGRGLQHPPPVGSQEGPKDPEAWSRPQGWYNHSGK

[2] = target: Receptor-interacting serine/threonine-protein kinase 3 (Homo sapiens) (UniProt Q9Y572); assay: Inhibition of full length RIP3 (unknown origin) assessed as substrate phosphorylation using MBP and ATP as substrate at 10 uM preincubated for 15 mins followed by substrate addition and measured after 90 mins by ADP-Glo luminescence assay; values are per cent of control; settings: time 105.0 min
[3] = target: T1, Receptor-interacting serine/threonine-protein kinase 1 (Homo sapiens) (UniProt Q13546); assay: Inhibition of RIP1 (1 to 375 residues) (unknown origin) assessed as substrate phosphorylation using MBP and ATP as substrate at 1 uM preincubated for 15 mins followed by substrate addition and measured after 90 mins by ADP-Glo luminescence assay; values are per cent of control; settings: time 105.0 min
T1 sequence (whole entry): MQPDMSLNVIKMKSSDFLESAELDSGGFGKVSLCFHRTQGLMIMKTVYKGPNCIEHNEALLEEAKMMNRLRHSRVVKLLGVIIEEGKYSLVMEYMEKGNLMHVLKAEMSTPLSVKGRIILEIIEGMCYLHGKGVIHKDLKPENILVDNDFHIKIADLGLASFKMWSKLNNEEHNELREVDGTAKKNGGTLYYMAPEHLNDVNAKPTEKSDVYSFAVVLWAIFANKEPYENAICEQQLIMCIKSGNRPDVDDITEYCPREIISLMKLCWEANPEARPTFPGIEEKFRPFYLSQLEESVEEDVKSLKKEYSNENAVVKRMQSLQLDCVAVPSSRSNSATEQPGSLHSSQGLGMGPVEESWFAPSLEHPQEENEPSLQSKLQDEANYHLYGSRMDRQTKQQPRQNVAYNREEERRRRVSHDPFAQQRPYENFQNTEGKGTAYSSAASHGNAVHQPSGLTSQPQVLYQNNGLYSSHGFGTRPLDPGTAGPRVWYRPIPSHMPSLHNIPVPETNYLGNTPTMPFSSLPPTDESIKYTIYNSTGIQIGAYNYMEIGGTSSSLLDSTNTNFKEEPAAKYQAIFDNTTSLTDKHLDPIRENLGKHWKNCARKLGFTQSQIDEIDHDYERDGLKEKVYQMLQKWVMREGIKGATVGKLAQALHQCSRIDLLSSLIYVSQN

[4] = target: T1, Receptor-interacting serine/threonine-protein kinase 1 (Homo sapiens); assay: Inhibition of RIP1 (1 to 375 residues) (unknown origin) assessed as substrate phosphorylation using MBP and ATP as substrate at 10 uM preincubated for 15 mins followed by substrate addition and measured after 90 mins by ADP-Glo luminescence assay; values are per cent of control; settings: time 105.0 min

Row | SMILES | EC50 (HT-29) | also measured
1 | Cc1ccc(CCC(=O)Nc2c(Cl)n(CC#Cc3ccc4[nH]ccc4c3)c(=O)n(C)c2=O)cc1 | 332 nM | –
2 | Cn1c(=O)c(NC(=O)CCCc2ccccc2)c(Cl)n(CC#Cc2cccc(O)c2)c1=O | > 10000 nM | –
3 | Cc1ccc(CCC(=O)Nc2c(Cl)n(CC#Cc3cccc(Cn4ccc(C)cc4=O)c3)c(=O)n(C)c2=O)cc1 | 106 nM | –
4 | Cc1ccc(CCC(=O)Nc2c(Cl)n(CC#Cc3ccc4c(c3)CCC(=O)O4)c(=O)n(C)c2=O)cc1 | 113 nM | –
5 | Cn1c(=O)c(NC(=O)CC(C)(C)C)c(Cl)n(CC#Cc2cccc(O)c2)c1=O | 5280 nM | –
6 | Cn1c(=O)c(NC(=O)Cc2ccccc2F)c(Cl)n(CC#Cc2cccc(O)c2)c1=O | 3350 nM | –
7 | Cc1ccc(CCC(=O)Nc2c(Cl)n(CC#Cc3ccc(NC(=O)c4ccccc4)cc3)c(=O)n(C)c2=O)cc1 | 214 nM | –
8 | Cn1c(=O)c(NC(=O)c2ccccc2)c(Cl)n(CC#Cc2cccc(O)c2)c1=O | > 10000 nM | –
9 | CCn1c(=O)c(NC(=O)CCc2ccc(C)cc2)c(Cl)n(CC#Cc2ccc(O)cc2)c1=O | 2220 nM | –
10 | C=CS(=O)(=O)Nc1c(C)n(CC#Cc2cccc(O)c2)c(=O)n(C)c1=O | > 10000 nM | –
11 | Cn1c(=O)c(NC(=O)Cc2ccccc2)c(Cl)n(CC#Cc2cccc(O)c2)c1=O | 1490 nM | –
12 | Cc1ccc(CCC(=O)Nc2c(Cl)n(CC#Cc3cccc(Cn4ccccc4=O)c3)c(=O)n(C)c2=O)cc1 | 136 nM | –
13 | C=CS(=O)(=O)Nc1cn(CC#Cc2cccc(O)c2)c(=O)n(C)c1=O | 2480 nM | –
14 | COc1ccc(C#CCn2c(Cl)c(NC(=O)CCc3ccc(C)cc3)c(=O)n(C)c2=O)cc1 | 3390 nM | –
15 | Cc1ccc(CCC(=O)Nc2c(Cl)n(CC#Cc3ccc(Cl)c(Cn4ccccc4=O)c3)c(=O)n(C)c2=O)cc1 | 110 nM | –
16 | Cc1ccc(CCC(=O)Nc2c(Cl)n(CC#Cc3ccc4c(c3)CCC(=O)N4C)c(=O)n(C)c2=O)cc1 | 281 nM | –
17 | Cc1ccc(CCC(=O)Nc2c(Cl)n(CC#Cc3cccc(Cn4cccc(C)c4=O)c3)c(=O)n(C)c2=O)cc1 | 134 nM | –
18 | Cc1ccc(CCC(=O)Nc2c(Cl)n(CC#Cc3cccc(NC(=O)c4ccccc4)c3)c(=O)n(C)c2=O)cc1 | 1000 nM | –
19 | C=CS(=O)(=O)Nc1c(OC)n(CC#Cc2cccc(O)c2)c(=O)n(C)c1=O | > 10000 nM | –
20 | C=CC(=O)Nc1c(OC)n(CC#Cc2cccc(O)c2)c(=O)n(C)c1=O | > 10000 nM | –
21 | C=CC(=O)Nc1c(C)n(CC#Cc2cccc(O)c2)c(=O)n(C)c1=O | > 10000 nM | –
22 | CC(=O)Nc1cccc(C#CCn2c(Cl)c(NC(=O)CCc3ccc(C)cc3)c(=O)n(C)c2=O)c1 | 870 nM | –

Row | SMILES | EC50 (HT-29) | also measured
23 | Cn1c(=O)c(NC(=O)CCc2cccc(F)c2)c(Cl)n(CC#Cc2cccc(O)c2)c1=O | 6300 nM | –
24 | Cc1ccc(CCC(=O)Nc2c(Cl)n(CC#Cc3cccc(Cn4c(C)cccc4=O)c3)c(=O)n(C)c2=O)cc1 | 122 nM | –
25 | Cn1c(=O)c(NC(=O)CCc2ccc(Cl)cc2)c(Cl)n(CC#Cc2cccc(O)c2)c1=O | 540 nM | –
26 | COc1cccn(Cc2cc(C#CCn3c(Cl)c(NC(=O)CCc4ccc(C)cc4)c(=O)n(C)c3=O)ccc2F)c1=O | 91 nM | –
27 | Cc1ccc(CCC(=O)Nc2c(Cl)n(CC#Cc3ccc(Cn4ccccc4=O)cc3)c(=O)n(C)c2=O)cc1 | 168 nM | –
28 | Cn1c(=O)c(NC(=O)Cc2ccc(Cl)cc2)c(Cl)n(CC#Cc2cccc(O)c2)c1=O | 3770 nM | –
29 | Cn1c(=O)c(NC(=O)Cc2ccc(F)cc2)c(Cl)n(CC#Cc2cccc(O)c2)c1=O | 4600 nM | –
30 | C#CCn1c(Cl)c(NC(=O)CCc2ccc(C)cc2)c(=O)n(C)c1=O | 7240 nM | –
31 | Cc1ccc(CCC(=O)Nc2c(Cl)n(CC#Cc3cccc(Cn4cc(C)ccc4=O)c3)c(=O)n(C)c2=O)cc1 | 158 nM | –
32 | CCC(=O)Nc1c(Cl)n(CC#Cc2cccc(O)c2)c(=O)n(C)c1=O | 3380 nM | –
33 | Cc1ccc(CCC(=O)Nc2c(Cl)n(CC#Cc3ccc(O)cc3)c(=O)n(C)c2=O)cc1 | 222 nM | residual activity [1]: 90.5%; residual activity [2]: 102%; residual activity [3]: 92.1%; residual activity [4]: 96.1%
34 | COc1ccc(CC(=O)Nc2c(Cl)n(CC#Cc3cccc(O)c3)c(=O)n(C)c2=O)cc1 | 1400 nM | –
35 | COCCOCC(=O)Nc1c(Cl)n(CC#Cc2cccc(O)c2)c(=O)n(C)c1=O | 4270 nM | –
36 | Cc1ccc(CCC(=O)Nc2c(Cl)n(CC#Cc3ccc4cc[nH]c4c3)c(=O)n(C)c2=O)cc1 | 727 nM | –
37 | COc1ccc(C#CCn2c(Cl)c(NC(=O)CCc3ccc(C)cc3)c(=O)n(C)c2=O)cc1Cn1cccc(OC)c1=O | 85 nM | residual activity [1]: 96.3%; residual activity [2]: 99.3%; residual activity [3]: 111%; residual activity [4]: 101%
38 | C=CS(=O)(=O)Nc1c(Cl)n(CC#Cc2cccc(O)c2)c(=O)n(C)c1=O | 5680 nM | –
39 | CCC(C)(C)C(=O)Nc1c(Cl)n(CC#Cc2cccc(O)c2)c(=O)n(C)c1=O | > 10000 nM | –
40 | COc1cccn(Cc2cccc(C#CCn3c(Cl)c(NC(=O)CCc4ccc(C)cc4)c(=O)n(C)c3=O)c2)c1=O | 82 nM | –
41 | Cc1ccc(CCC(=O)Nc2c(Cl)n(CC#Cc3cccc(O)c3)c(=O)n(C)c2=O)cc1 | 316 nM | –
42 | Cc1ccc(CCC(=O)Nc2c(Cl)n(CC#Cc3cccc(N)c3)c(=O)n(C)c2=O)cc1 | 1060 nM | –
43 | COc1ccn(Cc2cccc(C#CCn3c(Cl)c(NC(=O)CCc4ccc(C)cc4)c(=O)n(C)c3=O)c2)c(=O)c1 | 93 nM | –
44 | CCc1ccc(CCC(=O)Nc2c(Cl)n(CC#Cc3cccc(O)c3)c(=O)n(C)c2=O)cc1 | 998 nM | –

Row | SMILES | EC50 (HT-29) | also measured
45 | Cc1ccc(CCC(=O)Nc2c(Cl)n(CC#Cc3ccc(N)cc3)c(=O)n(C)c2=O)cc1 | 1020 nM | –
46 | Cc1ccc(CCC(=O)Nc2c(Cl)n(CC#Cc3ccc(O)cc3)c(=O)n(CC3CCCC3)c2=O)cc1 | > 10000 nM | –
47 | Cn1c(=O)c(NC(=O)CCc2ccc(F)cc2)c(Cl)n(CC#Cc2cccc(O)c2)c1=O | 455 nM | –
48 | Cc1ccc(CCC(=O)Nc2c(Cl)n(CC#Cc3ccc4c(c3)CCC(=O)N4)c(=O)n(C)c2=O)cc1 | 132 nM | residual activity [1]: 102%; residual activity [2]: 90.5%; residual activity [3]: 109%; residual activity [4]: 94.5%
49 | Cc1ccc(CCC(=O)Nc2c(Cl)n(CC#Cc3ccccc3)c(=O)n(C)c2=O)cc1 | 1990 nM | –
50 | CCCCCCCC(=O)Nc1c(Cl)n(CC#Cc2cccc(O)c2)c(=O)n(C)c1=O | 2340 nM | –
51 | Cn1c(=O)c(NC(=O)CCc2ccccc2)c(Cl)n(CC#Cc2cccc(O)c2)c1=O | 1070 nM | –
52 | Cc1ccc(CCC(=O)Nc2c(Cl)n(CC#Cc3ccc(NCc4ccccc4)cc3)c(=O)n(C)c2=O)cc1 | 2020 nM | –
53 | C=CC(=O)Nc1c(Cl)n(CC#Cc2cccc(O)c2)c(=O)n(C)c1=O | 950 nM | residual activity [1]: 102%; residual activity [2]: 108%; residual activity [3]: 84.2%; residual activity [4]: 86.2%
54 | COc1cccn(Cc2cc(C#CCn3c(Cl)c(NC(=O)CCc4ccc(C)cc4)c(=O)n(C)c3=O)ccc2Cl)c1=O | 90 nM | –
55 | CCCn1c(=O)c(NC(=O)CCc2ccc(C)cc2)c(Cl)n(CC#Cc2ccc(O)cc2)c1=O | 1020 nM | –
56 | C=CC(=O)Nc1cn(CC#Cc2cccc(O)c2)c(=O)n(C)c1=O | > 10000 nM | –
57 | COc1ccc(C#CCn2c(Cl)c(NC(=O)CCc3ccc(C)cc3)c(=O)n(C)c2=O)cc1Cn1ccccc1=O | 85 nM | –
58 | CC(=O)Nc1ccc(C#CCn2c(Cl)c(NC(=O)CCc3ccc(C)cc3)c(=O)n(C)c2=O)cc1 | 717 nM | –
59 | Cn1c(=O)c(NC(=O)/C=C/c2ccccc2)c(Cl)n(CC#Cc2cccc(O)c2)c1=O | > 10000 nM | –
60 | Cn1c(=O)c(NC(=O)CCc2ccccc2F)c(Cl)n(CC#Cc2cccc(O)c2)c1=O | 829 nM | –
61 | Cn1c(=O)c(NC(=O)CCc2ccc(C#N)cc2)c(Cl)n(CC#Cc2cccc(O)c2)c1=O | 639 nM | –
62 | Cn1c(=O)c(NC(=O)Cc2cccc(F)c2)c(Cl)n(CC#Cc2cccc(O)c2)c1=O | 2320 nM | –
63 | Cc1ccc(CCC(=O)Nc2c(Cl)n(CC#Cc3ccc(F)c(Cn4ccccc4=O)c3)c(=O)n(C)c2=O)cc1 | 139 nM | –
64 | CCC(C)C(=O)Nc1c(Cl)n(CC#Cc2cccc(O)c2)c(=O)n(C)c1=O (stereo not given) | 1740 nM | –
65 | Cc1ccc(C(=O)Nc2ccc(CN3CCN(C)CC3)c(C(F)(F)F)c2)cc1C#Cc1cnc2cccnn12 [PONATINIB] | 440 nM | residual activity [1]: 0.97%; residual activity [2]: 0.31%; residual activity [3]: 3.8%; residual activity [4]: 0.4%
